The text below walks through data of patent publication US20240124503A1, “HETEROAROMATIC PHOSPHONIUM SALTS AND THEIR USE TREATING CANCER” (FLORATEK PHARMA S.A., priority 2021, published 2024).

The target in one assay is T1, ABL1-nonphosphorylated (Homo sapiens, UniProt P00519).
T1 construct: purchased Eurofins (KINOMEscan); host or cells: E. coli BL21-derived host (T7 phage) or HEK-293
The assay is described as follows: KINOMEscan competition binding, ABL1-nonphosphorylated. The method, then:
Selected compounds were screened for kinase inhibition using the KINOMEscan™ assay (Eurofins) which is based on a competition binding assay that quantitatively measures the ability of a compound to compete with an immobilized, active-site directed ligand. The assay was performed by combining three components: DNA-tagged kinase; immobilized ligand; and the test compound. The ability of the test compound to compete with the immobilized ligand was measured via quantitative PCR of the DNA tag.
Kinase-tagged T7 phage strains were prepared in an E. coli host derived from the BL21 strain. E. coli were grown to log-phase and infected with T7 phage and incubated with shaking at 32° C. until lysis. The lysates were centrifuged and filtered to remove cell debris. The remaining kinases were produced in HEK-293 cells and subsequently tagged with DNA for qPCR detection. Streptavidin-coated magnetic beads were treated with biotinylated small molecule ligands for 30 minutes at room temperature to generate affinity resins for kinase assays. […] Kds were determined using an 11-point 3-fold compound dilution series with three DMSO control points. […] The kinase concentration in the eluates was measured by qPCR. […]
Binding constants (Kds) were calculated with a standard dose-response curve using the Hill equation: Response=Background+[Signal−Background/1+(Kd^Hill Slope/Dose^Hill Slope)] […]

For another assay, the system named is ZR-75-1. The assay is described as follows: Cell viability assay, ZR-75-1. In kind it is cell-based. Particulars: Homo sapiens; breast carcinoma cell line ZR-75-1. The method, then:
Antitumor activity of the compounds and doxorubicin as a positive control was assessed by using the CellTiter-Blue Cell Viability Assay (Promega, #G8082) or CellTiter-Glow® Luminescent Cell Viability assay (Promega #G7572) according to the manufacturer's instructions. The compounds were tested at 5 or 6 concentrations in half-log increments (highest concentration 30 μM or 100 μM) in duplicate or triplicate well conditions.
Tumor cells were grown at 37° C. in a humidified atmosphere with 5% CO2 in RPMI 1640 or DMEM medium, supplemented with 10% (v/v) fetal calf serum and 50 μg/ml gentamicin for up to 20 passages, and were passaged once or twice weekly. Cells were harvested using TrypLE or PBS buffer containing 1 mM EDTA, and the percentage of viable cells was determined using a CASY Model TI cell counter (OMNI Life Science). Cells were harvested from exponential phase cultures, counted and plated in 96 well flat-bottom microtiter plates at a cell density depending on the cell line's growth rate (4,000-20,000 cells/well depending on the cell line's growth rate, up to 60,000 for hematological cancer cell lines) in RPMI 1640 or DMEM medium supplemented with 10% (v/v) fetal calf serum and 50 μg/ml gentamicin (140 μl/well). […] Viability of cells was quantified by the CellTiter-Blue® cell viability assay (Promega G8081) or CellTiter-Glow® Luminescent Cell Viability assay (Promega #G7572). […]

T1 sequence (P00519 whole entry): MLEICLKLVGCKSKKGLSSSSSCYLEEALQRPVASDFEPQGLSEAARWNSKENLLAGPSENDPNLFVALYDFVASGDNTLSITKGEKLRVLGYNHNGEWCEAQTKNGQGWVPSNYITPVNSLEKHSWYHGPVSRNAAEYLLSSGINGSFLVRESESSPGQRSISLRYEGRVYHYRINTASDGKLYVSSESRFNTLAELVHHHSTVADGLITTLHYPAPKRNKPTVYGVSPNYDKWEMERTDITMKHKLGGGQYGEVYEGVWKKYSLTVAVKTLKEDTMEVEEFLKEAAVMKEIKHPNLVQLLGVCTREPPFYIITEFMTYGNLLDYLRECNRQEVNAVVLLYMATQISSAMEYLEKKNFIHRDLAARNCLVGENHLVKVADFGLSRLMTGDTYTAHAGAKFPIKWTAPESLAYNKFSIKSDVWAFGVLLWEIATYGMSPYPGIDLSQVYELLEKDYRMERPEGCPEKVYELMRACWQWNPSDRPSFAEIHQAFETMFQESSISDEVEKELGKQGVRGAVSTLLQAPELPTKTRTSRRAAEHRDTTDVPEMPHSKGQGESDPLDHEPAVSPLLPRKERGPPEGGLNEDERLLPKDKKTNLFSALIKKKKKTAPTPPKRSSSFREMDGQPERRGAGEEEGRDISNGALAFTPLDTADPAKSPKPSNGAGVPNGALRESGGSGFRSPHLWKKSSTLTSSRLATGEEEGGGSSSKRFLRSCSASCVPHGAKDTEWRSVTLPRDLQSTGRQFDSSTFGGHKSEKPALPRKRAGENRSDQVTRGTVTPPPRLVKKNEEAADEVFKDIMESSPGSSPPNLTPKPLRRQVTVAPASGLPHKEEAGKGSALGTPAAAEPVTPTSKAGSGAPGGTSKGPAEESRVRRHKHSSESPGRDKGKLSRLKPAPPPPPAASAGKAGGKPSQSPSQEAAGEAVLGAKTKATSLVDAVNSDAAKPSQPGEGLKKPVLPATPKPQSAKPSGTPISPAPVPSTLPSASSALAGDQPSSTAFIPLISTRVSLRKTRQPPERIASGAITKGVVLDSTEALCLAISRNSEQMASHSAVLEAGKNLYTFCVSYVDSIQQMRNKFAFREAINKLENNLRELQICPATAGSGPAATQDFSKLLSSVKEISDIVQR

As to `COc1c(O)ccc2c(=O)c(O)c(-c3ccc(CCCC[P+](c4ccccc4)(c4ccccc4)c4ccccc4)cc3)oc12` [SND190, (4-(4-(3,7-Dihydroxy-8-methoxy-4-oxo-4H1-chromen-2-yl)phenyl)butyl)triphenylphosphonium bromide], on ABL1-nonphosphorylated, binding was put at a Kd of 0.46 µM. Moreover, the concentration for half-maximal inhibition (IC50) (commonly the concentration at which inhibition is half-maximal) in the assay with ZR-75-1 is 3.5 µM.
